Converted amounts (≈) assume the structure as drawn. “And” between values parts separate entries of the source, which are not always exact repeats. Identical values can stand only once.

A word on the solubility: it is how much of the substance goes into solution per volume. Read a low solubility as a poorly soluble substance.

A short description of one data set: physchem. The settings on record: phosphate-buffered saline, 25 °C, pH 7.4, aqueous buffer, kinetic from dmso stock.
The next data set can be described thus: in vitro. As to conditions: mouse, pH 7.4.
Data set [1] concerns the target panel of 320 non-olfactory GPCRs (Homo sapiens, UniProt P25100). Type of data set: cell-based.
Data set [2] addresses panel of 320 non-olfactory GPCRs (Homo sapiens, UniProt O00421). In kind it is cell-based.
For data set [3], the target named is panel of 320 non-olfactory GPCRs (Homo sapiens, UniProt P07550). Type of data set: cell-based.
The target in data set [4] is panel of 320 non-olfactory GPCRs (Homo sapiens, UniProt Q8TDV0). In kind it is cell-based.
In data set [5] the target is panel of 320 non-olfactory GPCRs (Homo sapiens, UniProt P08913). In kind it is cell-based.
Data set [6] concerns the target panel of 320 non-olfactory GPCRs (Homo sapiens, UniProt P60893). Type of data set: cell-based.
Data set [7] deals with panel of 320 non-olfactory GPCRs (Homo sapiens, UniProt Q99705). Type of data set: cell-based.
The target of data set [8] is panel of 320 non-olfactory GPCRs (Homo sapiens, UniProt O00398). In kind it is cell-based.
panel of 320 non-olfactory GPCRs (Homo sapiens, UniProt O00398), sequence (O00398 whole entry): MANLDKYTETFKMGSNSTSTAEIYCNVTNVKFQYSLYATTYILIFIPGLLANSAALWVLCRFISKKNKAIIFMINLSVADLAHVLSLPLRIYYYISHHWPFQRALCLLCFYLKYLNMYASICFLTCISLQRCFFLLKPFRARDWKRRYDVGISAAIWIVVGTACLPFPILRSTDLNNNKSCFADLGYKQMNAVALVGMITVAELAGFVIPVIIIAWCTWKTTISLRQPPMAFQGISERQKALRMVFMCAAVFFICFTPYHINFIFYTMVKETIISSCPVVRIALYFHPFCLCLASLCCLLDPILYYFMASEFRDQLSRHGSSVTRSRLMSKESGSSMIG
Data set [9] concerns the target panel of 320 non-olfactory GPCRs (Homo sapiens, UniProt Q9H244). Type of data set: cell-based.
Data set [10] addresses panel of 320 non-olfactory GPCRs (Homo sapiens, UniProt P50391). In kind it is cell-based.
Data set [11] addresses panel of 320 non-olfactory GPCRs (Homo sapiens, UniProt Q8TDS5). In kind it is cell-based.
The target of data set [12] is panel of 320 non-olfactory GPCRs (Homo sapiens, UniProt O95665). In kind it is cell-based.
The target in data set [13] is panel of 320 non-olfactory GPCRs (Homo sapiens, UniProt Q8IZ08). Type of data set: cell-based.
Data set [14] has as its target panel of 320 non-olfactory GPCRs (Homo sapiens, UniProt Q8IZF5). Type of data set: cell-based.
Data set [15] concerns the target panel of 320 non-olfactory GPCRs (Homo sapiens, UniProt P41145). Type of data set: cell-based.
In data set [16] the target is panel of 320 non-olfactory GPCRs (Homo sapiens, UniProt Q8TDV5). In kind it is cell-based.
Data set [17] deals with panel of 320 non-olfactory GPCRs (Homo sapiens, UniProt Q9NZH0). Type of data set: cell-based.
panel of 320 non-olfactory GPCRs (Homo sapiens, UniProt Q9NZH0), sequence (Q9NZH0 29-403): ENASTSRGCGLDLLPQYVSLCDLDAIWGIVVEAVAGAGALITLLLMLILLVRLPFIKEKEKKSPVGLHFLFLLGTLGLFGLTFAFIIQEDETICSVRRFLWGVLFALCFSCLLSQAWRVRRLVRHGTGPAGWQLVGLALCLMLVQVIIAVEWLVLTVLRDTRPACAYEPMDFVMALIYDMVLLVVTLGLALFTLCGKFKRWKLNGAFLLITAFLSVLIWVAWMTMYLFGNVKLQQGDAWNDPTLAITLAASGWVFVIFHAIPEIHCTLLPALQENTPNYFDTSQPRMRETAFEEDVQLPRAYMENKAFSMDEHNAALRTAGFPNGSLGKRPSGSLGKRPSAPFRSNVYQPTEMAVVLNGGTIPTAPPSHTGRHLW
The target of data set [18] is panel of 320 non-olfactory GPCRs (Homo sapiens, UniProt Q9Y271). Type of data set: cell-based.
The target in data set [19] is panel of 320 non-olfactory GPCRs (Homo sapiens, UniProt Q5NUL3). Type of data set: cell-based.
Data set [20] addresses panel of 320 non-olfactory GPCRs (Homo sapiens, UniProt P08908). In kind it is cell-based.
For data set [21], the target named is panel of 320 non-olfactory GPCRs (Homo sapiens, UniProt O95977). Type of data set: cell-based.
The target in data set [22] is panel of 320 non-olfactory GPCRs (Homo sapiens, UniProt P51582). Type of data set: cell-based.
For data set [23], the target named is panel of 320 non-olfactory GPCRs (Homo sapiens, UniProt Q9H1C0). Type of data set: cell-based.
In data set [24] the target is panel of 320 non-olfactory GPCRs (Homo sapiens, UniProt P28336). Type of data set: cell-based.
panel of 320 non-olfactory GPCRs (Homo sapiens, UniProt P28336), sequence (P28336 whole entry): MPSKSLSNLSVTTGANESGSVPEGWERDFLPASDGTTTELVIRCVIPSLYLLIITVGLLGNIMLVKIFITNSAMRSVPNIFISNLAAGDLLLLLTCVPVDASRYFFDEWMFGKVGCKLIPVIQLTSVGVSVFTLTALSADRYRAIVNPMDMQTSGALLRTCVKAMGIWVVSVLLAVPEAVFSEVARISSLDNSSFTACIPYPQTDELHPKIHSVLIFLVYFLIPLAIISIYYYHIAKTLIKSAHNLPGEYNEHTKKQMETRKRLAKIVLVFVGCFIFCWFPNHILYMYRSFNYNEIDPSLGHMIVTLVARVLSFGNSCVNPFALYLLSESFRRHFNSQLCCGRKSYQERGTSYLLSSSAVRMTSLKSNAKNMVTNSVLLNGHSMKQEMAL
For data set [25], the target named is panel of 320 non-olfactory GPCRs (Homo sapiens, UniProt Q8TDU6). In kind it is cell-based.
panel of 320 non-olfactory GPCRs (Homo sapiens, UniProt Q8TDU6), sequence (Q8TDU6 whole entry): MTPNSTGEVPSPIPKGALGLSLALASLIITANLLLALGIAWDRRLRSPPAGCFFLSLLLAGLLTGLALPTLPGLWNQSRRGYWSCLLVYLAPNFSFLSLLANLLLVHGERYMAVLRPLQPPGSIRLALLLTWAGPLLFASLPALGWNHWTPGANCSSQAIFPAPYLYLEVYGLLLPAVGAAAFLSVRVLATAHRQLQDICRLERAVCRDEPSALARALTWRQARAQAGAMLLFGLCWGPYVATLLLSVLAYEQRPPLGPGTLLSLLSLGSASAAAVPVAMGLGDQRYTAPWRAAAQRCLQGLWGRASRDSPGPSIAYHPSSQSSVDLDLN
For data set [26], the target named is panel of 320 non-olfactory GPCRs (Homo sapiens, UniProt Q96LA9). Type of data set: cell-based.
For data set [27], the target named is panel of 320 non-olfactory GPCRs (Homo sapiens, UniProt Q8NGU9). In kind it is cell-based.
Data set [28] concerns the target panel of 320 non-olfactory GPCRs (Homo sapiens, UniProt Q8IZF4). Type of data set: cell-based.
The target of data set [29] is panel of 320 non-olfactory GPCRs (Homo sapiens, UniProt Q9Y5N1). In kind it is cell-based.
panel of 320 non-olfactory GPCRs (Homo sapiens, UniProt Q9Y5N1), sequence (Q9Y5N1 whole entry): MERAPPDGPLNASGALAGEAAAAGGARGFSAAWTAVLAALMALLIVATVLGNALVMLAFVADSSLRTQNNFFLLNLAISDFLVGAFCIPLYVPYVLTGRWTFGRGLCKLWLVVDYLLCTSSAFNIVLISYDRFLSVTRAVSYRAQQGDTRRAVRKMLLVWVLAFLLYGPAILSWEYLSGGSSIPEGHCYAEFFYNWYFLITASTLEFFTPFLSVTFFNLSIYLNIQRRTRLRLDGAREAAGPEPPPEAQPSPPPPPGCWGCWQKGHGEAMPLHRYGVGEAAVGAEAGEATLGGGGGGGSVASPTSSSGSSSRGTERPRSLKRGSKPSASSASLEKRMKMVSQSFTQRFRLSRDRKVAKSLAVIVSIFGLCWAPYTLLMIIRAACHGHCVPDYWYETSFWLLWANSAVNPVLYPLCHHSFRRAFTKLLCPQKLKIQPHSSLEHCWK
The target of data set [30] is panel of 320 non-olfactory GPCRs (Homo sapiens, UniProt Q7Z602). In kind it is cell-based.
panel of 320 non-olfactory GPCRs (Homo sapiens, UniProt Q7Z602), sequence (Q7Z602 whole entry): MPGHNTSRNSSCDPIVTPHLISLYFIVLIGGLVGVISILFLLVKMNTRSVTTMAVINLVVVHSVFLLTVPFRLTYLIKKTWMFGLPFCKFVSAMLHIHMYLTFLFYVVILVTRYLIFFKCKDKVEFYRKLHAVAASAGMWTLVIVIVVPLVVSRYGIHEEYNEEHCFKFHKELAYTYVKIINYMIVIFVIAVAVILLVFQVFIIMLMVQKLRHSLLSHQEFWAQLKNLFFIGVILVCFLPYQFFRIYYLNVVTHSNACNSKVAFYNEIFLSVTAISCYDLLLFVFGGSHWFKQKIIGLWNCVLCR
In data set [31] the target is panel of 320 non-olfactory GPCRs (Homo sapiens, UniProt P47900). Type of data set: cell-based.
panel of 320 non-olfactory GPCRs (Homo sapiens, UniProt P47900), sequence (P47900 whole entry): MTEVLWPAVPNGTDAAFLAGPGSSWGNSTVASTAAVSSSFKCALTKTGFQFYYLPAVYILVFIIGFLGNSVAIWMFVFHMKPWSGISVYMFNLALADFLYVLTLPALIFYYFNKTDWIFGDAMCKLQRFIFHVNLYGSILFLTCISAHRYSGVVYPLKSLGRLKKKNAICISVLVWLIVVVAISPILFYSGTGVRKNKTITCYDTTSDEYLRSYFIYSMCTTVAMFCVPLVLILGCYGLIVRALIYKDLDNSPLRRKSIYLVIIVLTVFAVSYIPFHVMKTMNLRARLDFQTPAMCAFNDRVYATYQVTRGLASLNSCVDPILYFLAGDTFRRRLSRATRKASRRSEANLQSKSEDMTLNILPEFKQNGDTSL
In data set [32] the target is panel of 320 non-olfactory GPCRs (Homo sapiens, UniProt Q9Y2T5). In kind it is cell-based.
panel of 320 non-olfactory GPCRs (Homo sapiens, UniProt Q9Y2T5), sequence (Q9Y2T5 whole entry): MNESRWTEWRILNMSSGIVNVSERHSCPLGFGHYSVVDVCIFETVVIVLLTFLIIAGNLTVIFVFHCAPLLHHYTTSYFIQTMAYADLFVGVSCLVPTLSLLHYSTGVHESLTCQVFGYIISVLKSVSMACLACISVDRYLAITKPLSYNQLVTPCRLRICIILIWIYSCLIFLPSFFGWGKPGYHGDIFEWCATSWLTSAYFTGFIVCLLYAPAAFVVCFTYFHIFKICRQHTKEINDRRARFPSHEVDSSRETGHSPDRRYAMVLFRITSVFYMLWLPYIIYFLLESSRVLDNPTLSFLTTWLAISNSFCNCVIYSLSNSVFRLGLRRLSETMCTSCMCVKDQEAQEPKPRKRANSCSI
Data set [33] has as its target panel of 320 non-olfactory GPCRs (Homo sapiens, UniProt P32248). Type of data set: cell-based.
In data set [34] the target is panel of 320 non-olfactory GPCRs (Homo sapiens, UniProt Q9H228). In kind it is cell-based.
Data set [35] deals with panel of 320 non-olfactory GPCRs (Homo sapiens, UniProt Q969V1). Type of data set: cell-based.
For data set [36], the target named is panel of 320 non-olfactory GPCRs (Homo sapiens, UniProt Q9BXC0). In kind it is cell-based.

panel of 320 non-olfactory GPCRs (Homo sapiens, UniProt Q8IZF4), sequence (Q8IZF4 22-528): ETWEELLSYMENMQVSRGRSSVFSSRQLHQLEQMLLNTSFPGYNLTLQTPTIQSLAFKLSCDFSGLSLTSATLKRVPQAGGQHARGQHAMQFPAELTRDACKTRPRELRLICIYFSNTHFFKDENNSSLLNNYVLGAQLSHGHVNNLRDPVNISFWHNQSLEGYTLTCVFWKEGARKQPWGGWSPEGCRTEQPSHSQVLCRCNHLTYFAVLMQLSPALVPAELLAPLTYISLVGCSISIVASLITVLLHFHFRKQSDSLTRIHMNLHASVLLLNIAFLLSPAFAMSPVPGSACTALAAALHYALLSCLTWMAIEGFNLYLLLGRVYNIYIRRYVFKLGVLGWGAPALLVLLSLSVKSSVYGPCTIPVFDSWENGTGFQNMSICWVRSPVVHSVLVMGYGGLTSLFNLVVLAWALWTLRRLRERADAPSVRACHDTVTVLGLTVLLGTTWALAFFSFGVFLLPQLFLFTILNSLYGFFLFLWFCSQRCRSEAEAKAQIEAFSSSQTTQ
panel of 320 non-olfactory GPCRs (Homo sapiens, UniProt P41145), sequence (P41145 whole entry): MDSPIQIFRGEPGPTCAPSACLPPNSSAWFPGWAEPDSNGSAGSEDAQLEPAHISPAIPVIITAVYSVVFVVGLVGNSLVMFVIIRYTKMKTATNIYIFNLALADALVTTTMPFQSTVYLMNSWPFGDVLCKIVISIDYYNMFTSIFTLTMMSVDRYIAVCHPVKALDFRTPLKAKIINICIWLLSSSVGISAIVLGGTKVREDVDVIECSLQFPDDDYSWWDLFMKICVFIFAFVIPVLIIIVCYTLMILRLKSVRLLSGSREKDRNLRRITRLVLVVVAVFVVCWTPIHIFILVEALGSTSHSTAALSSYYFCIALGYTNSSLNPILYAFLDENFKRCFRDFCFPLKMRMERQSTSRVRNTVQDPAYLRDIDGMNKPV
panel of 320 non-olfactory GPCRs (Homo sapiens, UniProt P32248), sequence (P32248 25-378): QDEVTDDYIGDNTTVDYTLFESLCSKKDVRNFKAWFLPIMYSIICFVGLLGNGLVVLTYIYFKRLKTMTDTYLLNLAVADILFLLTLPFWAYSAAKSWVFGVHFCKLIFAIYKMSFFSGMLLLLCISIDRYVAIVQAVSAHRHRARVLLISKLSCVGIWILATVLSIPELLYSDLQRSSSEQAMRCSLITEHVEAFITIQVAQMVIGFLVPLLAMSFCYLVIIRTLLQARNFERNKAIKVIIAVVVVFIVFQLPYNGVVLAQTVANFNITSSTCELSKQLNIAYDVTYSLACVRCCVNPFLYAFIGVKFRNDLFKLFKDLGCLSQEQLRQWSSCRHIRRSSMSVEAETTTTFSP
panel of 320 non-olfactory GPCRs (Homo sapiens, UniProt P50391), sequence (P50391 whole entry): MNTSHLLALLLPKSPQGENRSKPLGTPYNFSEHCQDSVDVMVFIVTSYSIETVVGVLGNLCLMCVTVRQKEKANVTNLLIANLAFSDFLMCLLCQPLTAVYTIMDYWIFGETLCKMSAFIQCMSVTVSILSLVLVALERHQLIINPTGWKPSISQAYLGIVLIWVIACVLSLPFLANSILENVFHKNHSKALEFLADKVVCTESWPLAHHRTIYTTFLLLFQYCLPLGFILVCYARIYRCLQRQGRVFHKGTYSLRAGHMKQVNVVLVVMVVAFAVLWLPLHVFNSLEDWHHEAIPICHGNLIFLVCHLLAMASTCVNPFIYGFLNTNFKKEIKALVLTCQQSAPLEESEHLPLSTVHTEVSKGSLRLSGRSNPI
panel of 320 non-olfactory GPCRs (Homo sapiens, UniProt Q8TDS5), sequence (Q8TDS5 whole entry): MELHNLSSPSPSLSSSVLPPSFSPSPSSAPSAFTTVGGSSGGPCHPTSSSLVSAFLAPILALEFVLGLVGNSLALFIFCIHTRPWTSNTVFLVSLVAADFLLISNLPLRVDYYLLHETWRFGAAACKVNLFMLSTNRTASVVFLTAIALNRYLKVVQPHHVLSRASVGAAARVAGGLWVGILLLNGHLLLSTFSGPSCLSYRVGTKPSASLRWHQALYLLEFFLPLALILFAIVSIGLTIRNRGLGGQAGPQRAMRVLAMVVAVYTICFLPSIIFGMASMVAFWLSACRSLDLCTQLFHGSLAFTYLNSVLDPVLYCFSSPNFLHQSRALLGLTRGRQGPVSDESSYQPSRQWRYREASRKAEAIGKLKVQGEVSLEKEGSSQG
Experimental for in vitro: Compounds were added to one chamber and the same volume of PBS buffer pH 7.4 to the other chamber. A standard solution was created by mixing an aliquot of spiked plasma with blank buffer without dialysis. […] The stability samples were immediately diluted with acetonitrile and stored at 4 °C until LC-MS/MS analysis. All samples were diluted 5-fold with 90% acetonitrile with internal standard with subsequent plasma proteins sedimentation by centrifuging at 5,796 g for 5 min. Supernatants were analyzed using HPLC system coupled with tandem mass spectrometer. The percentage of plasma protein-bound compound, recovery and stability were calculated using following equations:7 ProteinBinding=1−arearatioinbuffer/arearatioinplasma×100 8 Recovery=arearatioinbuffer+arearatioinplasma/arearatioinstabilitysample×100 9 Stability=arearatioinrecoverysample/arearatioinstabilitysample×100

In “physchem”, `COC(=O)[C@@](C)(NC(=O)c1cc(C)n(-c2cccc(C(F)(F)F)c2)n1)c1cccs1` [‘1350] came in with a solubility at 2 h of 23 µM (≈ 10.1 µg/mL). Besides, the recovery at 5 h, 1 μM in “in vitro” was 107%. In addition, the “Fold of Basal RLU” value is 0.6 and 0.7 and 0.9 and 0.5 in data set [1]; 1.8 and 1.2 and 1 and 0.9 in [2]; 0.7 in data set [3]; 0.6 and 0.8 and 1.1 in data set [4]; 1.8 fold and 1.4 fold and 1.6 fold and 1.2 fold in [5]; 1 fold and 1.9 fold and 1.2 fold in [6]. The “Fold of Basal RLU” value in data set [7] was 1.3 and 1.1 and 0.7; in [8], 1.1 and 1 and 1.2; in data set [9], 0.7 and 0.6; in data set [10], 1.3 and 1.4 and 1 and 0.7; in [11], 0.4 and 0.8 and 0.5; in [12], 1.2 and 1 and 0.7 and 0.8. Also, the “Fold of Basal RLU” value is 1.2 and 0.9 and 1.6 in data set [13]; 1.3 and 0.8 and 1.2 in [14].

On to `Cc1cc(C(=O)NC(C)(c2ccco2)c2ccco2)nn1-c1cccc(C(F)(F)F)c1` [‘4936], for which the “Fold of Basal RLU” value was 1.5 fold and 0.8 fold and 1 fold in data set [15]; 0.8 and 1.3 in data set [16]; 0.7 and 0.6 and 0.8 in data set [17]; 1.1 and 0.9 in [18]; 0.3 and 0.2 in data set [19]; 0.8 fold and 0.7 fold and 0.6 fold in [20]. The “Fold of Basal RLU” value was 0.7 fold and 0.5 fold in [21]; 1.4 fold and 1.8 fold and 1.7 fold in data set [22]; 0.7 and 0.4 and 0.6 in data set [23]; 2.2 and 1.8 and 1.2 and 1.3 in data set [24]; 1.4 fold and 1.5 fold and 1.7 fold in data set [25]; 0.6 and 0.8 and 1.1 in [26]. Further, the “Fold of Basal RLU” value in [27] is 0.7 and 0.6 and 0.5; in data set [28], 0.9 and 1 and 0.8 and 0.6; in [29] it was 1 and 0.5 and 0.6; in data set [30], 1.2 fold and 1.4 fold and 0.8 fold; in data set [31] it was 1.1 fold and 0.9 fold and 0.7 fold and 1 fold; in data set [32], 1.8 fold and 1.9 fold and 2.1 fold. For the same compound, the “Fold of Basal RLU” value in data set [33] is 0.9 and 0.7 and 0.6; in data set [34], 1.2 and 1.9 and 1.3; in [35], 1.7 and 1.4 and 1 and 1.6; in [36] it was 0.4 and 0.7 and 0.6.
